For data set [1], the target named is T1, Bromodomain-containing protein 1 (Homo sapiens, UniProt O95696).
T1 sequence (O95696 whole entry): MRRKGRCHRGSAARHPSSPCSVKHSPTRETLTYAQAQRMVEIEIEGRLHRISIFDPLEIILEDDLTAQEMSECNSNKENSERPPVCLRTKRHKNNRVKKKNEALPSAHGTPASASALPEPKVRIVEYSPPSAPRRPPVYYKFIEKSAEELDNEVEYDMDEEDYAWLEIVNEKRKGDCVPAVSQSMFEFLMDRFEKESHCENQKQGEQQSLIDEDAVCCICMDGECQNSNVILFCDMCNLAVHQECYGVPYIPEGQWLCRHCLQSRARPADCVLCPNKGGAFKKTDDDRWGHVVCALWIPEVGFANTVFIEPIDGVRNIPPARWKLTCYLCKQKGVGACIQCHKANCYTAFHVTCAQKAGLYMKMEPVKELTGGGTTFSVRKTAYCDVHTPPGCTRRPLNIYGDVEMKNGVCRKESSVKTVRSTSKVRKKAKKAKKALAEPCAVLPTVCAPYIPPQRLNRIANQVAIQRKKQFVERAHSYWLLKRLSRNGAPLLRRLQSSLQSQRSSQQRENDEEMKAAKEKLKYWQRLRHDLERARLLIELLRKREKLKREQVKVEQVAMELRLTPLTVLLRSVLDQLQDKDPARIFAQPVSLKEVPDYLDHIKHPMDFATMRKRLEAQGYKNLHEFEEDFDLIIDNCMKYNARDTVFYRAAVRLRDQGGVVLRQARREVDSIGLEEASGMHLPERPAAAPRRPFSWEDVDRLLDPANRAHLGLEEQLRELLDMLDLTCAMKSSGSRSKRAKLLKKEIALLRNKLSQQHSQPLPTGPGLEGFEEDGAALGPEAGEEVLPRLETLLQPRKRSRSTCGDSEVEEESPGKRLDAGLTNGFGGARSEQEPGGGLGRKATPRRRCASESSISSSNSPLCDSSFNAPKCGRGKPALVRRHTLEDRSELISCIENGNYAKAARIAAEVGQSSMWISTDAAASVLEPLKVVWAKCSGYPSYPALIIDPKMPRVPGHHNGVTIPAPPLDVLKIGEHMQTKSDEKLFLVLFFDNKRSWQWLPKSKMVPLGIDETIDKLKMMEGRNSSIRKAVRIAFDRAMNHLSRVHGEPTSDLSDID
The data set is described as follows: Inhibition of BRD1 (unknown origin) measured after 70 mins by TR-FRET assay. In general terms: Time-resolved FRET reads energy transfer from a long-lived donor to a nearby acceptor.

Data set [2] is described as follows: Oral bioavailability in rat at 10 mg/kg. In kind it is ADME, organism-based. As to conditions: in vivo.

Broadly, the IC50 is the concentration that inhibits the measured activity by half. A lower IC50 goes with greater potency in that assay. The term bioavailability denotes dose-corrected exposure relative to a reference, in per cent. A high value points to much systemic uptake. In data set [1], `Cc1nnc2n1-c1ccc(-c3ccc(N)nc3)cc1N(c1ccc(Cl)cc1)C[C@H]2C` returned an IC50 above 15 µM. In data set [2], the bioavailability came out at 23%.

Values taken from ChEMBL document CHEMBL4715706, “Discovery of Benzotriazolo[4,3-d][1,4]diazepines as Orally Active Inhibitors of BET Bromodomains” (ACS Med Chem Lett, 2016).
